System: OPN production by human liver cancer-derived cell line HepG2
Assay: OPN production by HepG2 cells (Human Osteopontin Immunoassay, per mg protein)
Assay type: cell-based
Details: 2-day culture; for suppression of OPN production vs control group: significance level less than 1%
Protocol: The confirmation test was performed in the following manner. The compound 3 wad added to a culture liquid containing cells of a human non-small cell lung cancer-derived cell line A549 or a human liver cancer-derived cell line HepG2, and the amount of OPN in culture supernatant after 2-day culture was measured using Human Osteopontin Immunoassay kit (R&D systems) and compared with the OPN amount of a compound 3-free group (control group).
The compound 3 has also cell growth inhibitory effect. Therefore, in order to properly evaluate the OPN production-suppressing effect of the compound 3, 1×CCLR used in luciferase assay was added to cells remaining in each well after removal of culture supernatant to prepare a cell lysate, and the amount of protein in the cell lysate was measured using BCA Protein Assay Kit (Thermo Scientific). The influence of addition of the compound 3 on the amount of OPN production was evaluated by comparison of the amount of OPN per milligram of protein.
First, A549 cells or HepG2 cells were suspended in DMEM medium containing 10% FCS and 1% P/S at 4×10^4 cells/mL to obtain a cell suspension, and 500 μL of the cell suspension was dispensed into each well of a 24-well plate. In order to perform the test in triplicate, 3 wells were prepared for a control group and 3 wells were prepared for each test compound-treated group at each concentration. The 24-well plate was incubated in a CO2 incubator (at 37° C. and 5% CO2) for 24±4 hours.
The 3.75 mmol/L compound 3 solution or the 7.5 mmol/L compound 3 solution was added in an amount of 2 μL to each well in which HepG2 cells were cultured. Only DMSO was added to each control well in an amount of 2 μL.
The 24-well plate was rocked back and forth and side to side to mix the solution in each well, and was then incubated in a CO2 incubator (at 37° C. and 5% CO2) for 48±4 hours. Then, the total amount of culture supernatant was transferred into a 1.5 mL tube, and 500 μL of D-PBS(−) was added to each well in which cells are remained. […]

## CCCCCCCCCCCC(=O)[C@H]1C(=O)O[C@@H](C)C[C@@H]1C [Chemical formula 3]
15 μmol/L
  suppression of OPN production vs control group: significantly suppressed
30 μmol/L
  amount of OPN produced relative to control group: reduced to half or less
  suppression of OPN production vs control group: significantly suppressed

Reference: patent US9463188B2, “Osteopontin production inhibitor containing dictyopyrone derivative or dihydrodictyopyrone derivative as active ingredient” (TOHOKU UNIVERSITY, priority 2013, dated 2016)
